Experimental data from US7582675B2, “Flavonoid compound and process for producing the same” (Pokka Corporation, priority 2001, dated 2009).
“Also recorded” adds a separate entry of the source.

Experiments:
solubility = type: physicochemical
[1] = lipid peroxidation of methyl linoleate by HPLC, antioxidative activity in a hydrophobic solvent; type: biochemical; conditions: 100 μM sample solutions, 40° C. for 18 hours, FIG. 2, listed as 8OH-HE
Description: The antioxidative activity in a hydrophobic solvent was measured for hesperidin (HE), isolated 8-hydroxyhesperetin (8OH-HE) and α-tocopherol (Toc), a compound that is known to have a high level of antioxidative activity. Incidentally, antioxidative activity was measured by HPLC analysis using methyl linoleate as described in Terao J., et al., Lipids, 21(4), 255-260, 1986.
More specifically, an 8OH-HE sample solution, HE sample solution and Toc sample solution having concentrations of 100 μM were first prepared by dissolving 8OH-HE, HE and Toc in ethanol. 89 mg (100 μL) aliquots of methyl linoleate were each weighed into three small test tubes having an inner diameter of 14 mm. 100 μL of each sample solution was added to the three test tubes and mixed well to prepare mixtures.
Next, each of the mixtures was dried by completely removing the solvent by placing each test tube in a vacuum desiccator in which pressure was reduced using a vacuum pump. […] The sum of the HPLC peak areas of 13-hydroperoxide and 9-hydroperoxide formed by the methyl linoleate was then determined.
Moreover, HPLC analysis was also performed using 100 μL of a solution of ethanol only instead of the sample solutions for the control. The sum of the HPLC peak areas of the control was also determined. The degree of lipid peroxidation (%) of each sample was then determined from Formula 2. […]

[2] = antioxidative action (general statement, no test named); conditions: general statement in the description
[3] = radical scavenging ability measurement (DPPH), antioxidative activity in a hydrophilic solvent; type: biochemical; conditions: samples 0.1, 1 and 10 μM, 20 minutes at room temperature, FIG. 1
Description: The antioxidative activity in a hydrophilic solvent was measured for hesperidin (HE) and the isolated 8-hydroxyhesperetin (8OH-HE). It should be noted that antioxidative activity was measured in accordance with the radical scavenging ability measurement method described in Yamaguchi, et al., Biosci. Biotechnol. Biochem., 62, 1201-1204, 1998. More specifically, an 8OH-HE sample solution and HE sample solution were first prepared having concentrations of 0.1 μM, 1 μM and 10 μM by dissolving 8OH-HE or HE in ethanol. 200 μL of each sample solution was then mixed into 800 μL of 0.1 M Tris-HCl buffer (pH 7.4). 1 ml of 500 μM DPPH (1,1-diphenyl-2-picrylhydrazyl) in ethanol was added to each mixture to prepare reaction solutions. After adequately mixing the reaction solutions, they were allowed to react for 20 minutes in a dark location at room temperature. Next, 20 μL of each reaction solution was injected into an analytical HPLC system (LC-10A) using a microsyringe to analyze the DPPH concentration. The DPPH concentration was calculated from peak area of DPPH. […] Using 200 μL of a solution of ethanol only instead of the sample solutions for the control, the peak area of DPPH was similarly measured for the control by HPLC analysis. The radical scavenging activity (%) of 8OH-HE and HE were then determined according to the calculation formula indicated in Formula 1. […]

| solubility in methanol, ethanol and dimethyl sulfoxide (DMSO) (solubility; methanol, ethanol, DMSO) | solubility in water (solubility; water) | Compound | saturation concentration (solubility limit) in the medium (solubility; culture medium, varies with the amount of organic solvent added) [% by weight] | antioxidative activity (degree of lipid peroxidation) [1] | antioxidative action [2] | antioxidative action ([2]; listed as 8-Hydroxyhesperetin) | antioxidative activity (radical scavenging activity) [3] |
| --- | --- | --- | --- | --- | --- | --- | --- |
|  |  | COc1ccc([C@@H]2CC(=O)c3c(O)cc(O[C@@H]4O[C@H](CO[C@@H]5O[C@@H](C)[C@H](O)[C@@H](O)[C@H]5O)[C@@H](O)[C@H](O)[C@H]4O)cc3O2)cc1O [hesperidin, reference compound] | ≤ 0.3 |  |  |  |  |
| easily dissolves | somewhat soluble | COc1ccc(C2CC(=O)c3c(O)cc(O)c(O)c3O2)cc1O (stereo not shown) [8-hydroxyhesperetin, 3′,5,7,8-tetrahydroxy-4′-methoxyflavonone] |  | much higher level of antioxidative activity than HE; also recorded: antioxidative activity that was comparable to α-tocopherol | extremely high level of antioxidative action comparable to that of α-tocopherol | remarkably high antioxidative action as compared with hesperidin and hesperetin | much higher level of antioxidative activity than HE |
